The assay in a line: Binding affinity to CypD (unknown origin).

One may read the Ki as the equilibrium dissociation constant of an inhibitor or competing ligand from its target. For `O=C(Nc1ccc2nc(-c3ccco3)c(-c3ccco3)nc2c1)N1CCCC1`, the Ki is 2000 nM.

The values are drawn from BindingDB's records for PubMed 27409354 (n/a, 2016).
